Target: T1, CSNK2A2 (Homo sapiens, UniProt P19784)
T1 construct: expressed in transfected cells; host or cells: HEK293
Assay: NanoBRET assay CSNK2A2
Format: cell-based
Conditions: HEK293 cells, singlicate, read-out: CSNK2A2 pIC50 (converted)
Procedure: Assays were run using a modified version of the previously published protocols. […] A transfection complex of DNA (10 μg/mL) was generated consisting of 9 μg/mL carrier DNA (Promega, Madison, WI, USA) and 1 μg/mL CSNK2A-NLuc fusion DNA in Opti-MEM without serum (Gibco). FuGENE HD (Promega) was added at 30 μL/mL to form a lipid–DNA complex. The solution was then mixed and incubated at room temperature for 20 min. The transfection complex was mixed with a 20× volume of HEK293 cells in DMEM/FBS to arrive at a final concentration of 200,000 cells/mL, and 100 μL/well was added to a 96-well plate that was incubated overnight at 37 °C and 5% CO2. The following day, the medium was removed via aspiration and replaced with 85 μL of Opti-MEM without phenol red. A total of 5 μL per well of 20× NanoBRET Tracer K10 (Promega) at 10 μM for CSNK2A1 or 5 μM for CSNK2A2 in Tracer Dilution Buffer (Promega N291B) was added to all wells, except the “no tracer” control wells. Test compounds (10 mM in DMSO) were diluted 100× in Opti-MEM media to prepare stock solutions and evaluated at 11 concentrations. A total of 10 μL per well of the 10-fold test compound stock solutions (final assay concentration of 0.1% DMSO) were added. […] The plates were read within 30 min on a GloMax Discover luminometer (Promega) equipped with a 450 nm BP filter (donor) and 600 nm LP filter (acceptor) using 0.3 s of integration time. […]

T1 sequence (P19784 whole entry): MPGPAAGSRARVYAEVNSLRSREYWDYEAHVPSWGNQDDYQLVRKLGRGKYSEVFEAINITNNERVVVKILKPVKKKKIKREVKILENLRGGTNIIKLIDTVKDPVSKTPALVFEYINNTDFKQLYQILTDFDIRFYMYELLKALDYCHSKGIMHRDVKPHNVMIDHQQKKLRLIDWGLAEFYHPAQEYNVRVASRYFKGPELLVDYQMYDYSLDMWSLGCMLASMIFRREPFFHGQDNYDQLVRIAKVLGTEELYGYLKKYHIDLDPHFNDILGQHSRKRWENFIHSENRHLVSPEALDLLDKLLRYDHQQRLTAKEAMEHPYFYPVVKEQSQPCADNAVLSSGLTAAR

CCC(=O)Nc1cc(Nc2cc(NC3CC3)n3ncc(C#N)c3n2)c(F)cc1N1CCC[C@H](NC)C1 [Compound 2, (S)-N-(5-((3-cyano-7-(cyclopropylamino)pyrazolo[1,5-a]pyrimidin-5-yl)amino)-4-fluoro-2-(3-(methylamino)piperidin-1-yl)phenyl)propionamide]
IC50: 12.6 nM
